According to patent publication US20160193211A1, “COMBINATIONS OF A BTK INHIBITOR AND FLUOROURACIL FOR TREATING CANCERS” (priority 2013, published 2016):

Columns and labels:
HCT116 cells = assay: Photographs of cells at 72 hours of incubation (FIG. 5b); details: 10 μM 5FU or 20 μM ibrutinib
[1] = tested on: HCT116p53KO, SW480, DLD-1 and HCT116 colon carcinoma cell lines; assay: In vitro cell proliferation assay (short term, CellTiter 96 AQueous); format: cell-based; details: ibrutinib 0 to 10 μM, up to 72 h
HCT116 xenografts = assay: In vivo treatment of drug-sensitive xenografts; details: for average volume of the tumor masses: after 28 days; for average volume of the tumor masses / significance of difference in tumor size vs vehicle-treated (untreated) group: 5FU 60 mpk
[2] = tested on: HCT116p53KO, SW480, HT-29, HCT116 and RKO colon carcinoma cell lines; assay: Cell viability, calcein assay, ibrutinib alone (FIG. 15); format: cell-based; details: 72 hs
HCT116p53KO xenografts = assay: In vivo treatment of drug-resistant xenografts; details: for average volume of the tumor masses: after 28 days, ibrutinib 25 mpk oral gavage once a day 5 days a week, 5FU 60 mg/kg i.p. twice a week
[3] = tested on: HCT116 overexpressing p65BTK (HCT116p65BTK); details: 200 μM 5FU, 72 hours
SW480 colon cancer cells = assay: Cell viability, calcein assay (FIG. 6); format: cell-based; details: ibrutinib 20 μM with 5FU 200 μM or oxaliplatin 20 μM; oxaliplatin 20 μM alone; 72 hs
Method: At the end of the treatment cell viability was evaluated by calcein assay.

Compound | toxicity seen in photographs, drugs used singularly (HCT116 cells) | capacity of the cells to proliferate [1] | average volume of the tumor masses (HCT116 xenografts; ibrutinib 25 mpk) | average volume of the tumor masses (HCT116 xenografts; ibrutinib 50 mpk) | significance of difference in tumor size vs vehicle-treated (untreated) group (HCT116 xenografts; ibrutinib 25 mpk) | significance of difference in tumor size vs vehicle-treated (untreated) group (HCT116 xenografts; ibrutinib 50 mpk) | growth-reducing and anti-proliferative effect on sensitive xenografts (HCT116 xenografts; ibrutinib alone, 25 or 50 mpk) | toxicity by cell type ([2]; highest concentration of ibrutinib (range 0 to 30 μM)) | viability ([2]; ibrutinib up to 20 μM, all cell lines) | average volume of the tumor masses (HCT116p53KO xenografts) | anti-tumoral effect (tumor volume vs untreated group) (HCT116p53KO xenografts; ibrutinib 50 mpk alone (FIG. 10b)) | viability: response to the cytotoxic effect of 5FU [3] | percentage of proliferating (Ki67-positive) cells compared to vehicle or ibrutinib alone (HCT116 xenografts; ibrutinib 25 mpk, 5FU 60 mpk (FIG. 12b)) | percentage of proliferating (Ki67-positive) cells compared to vehicle or ibrutinib alone (HCT116 xenografts; ibrutinib 50 mpk, 5FU 60 mpk (FIG. 13b)) | significance of reduction in tumor volume vs the untreated group (HCT116p53KO xenografts; ibrutinib 25 mpk, 5FU 60 mpk, end of treatment (FIG. 9b)) | reversion of drug resistance (viability) (SW480 colon cancer cells)
C=CC(=O)N1CCC[C@@H](n2nc(-c3ccc(Oc4ccccc4)cc3)c3c(N)ncnc32)C1 [ibrutinib, 1-[(3R)-3-[4-amino-3-(4-phenoxyphenyl)pyrazolo[3,4-d]pyrimidin-1-yl]piperidin-1-yl]prop-2-en-1-one] | no toxicity is evident | does not alter the capacity of the cells to proliferate | ≈ 347 mm^3 | ≈ 372 mm^3 | not statistically significant | not statistically significant | by itself is ineffective in these kind of tumors | preferentially toxic for 5FU drug-resistant, p53-null | decreases the viability in a dose-dependent manner | ≈ 760 mm^3 | has an anti-tumoral effect on its own | – | – | – | – | –
O=c1[nH]cc(F)c(=O)[nH]1 [5FU, 5-fluoro-1H,3H-pyrimidine-2,4-dione] | no toxicity is evident | – | ≈ 226 mm^3 | ≈ 226 mm^3 | significant | significant | – | – | – | ≈ 530 mm^3 | – | become resistant to the cytotoxic effect of 5FU | significantly reduces the percentage of proliferating cells | significantly reduces the percentage of proliferating cells | not significant | –
O=C(O)C(=O)O.[NH-][C@@H]1CCCC[C@H]1[NH-].[Pt+2] [oxaliplatin] | – | – | – | – | – | – | – | – | – | – | – | – | – | – | – | Reversion of resistance was not obtained
